Measured values reported in patent US10286038B2, “Lysosome membrane protein 2 (LIMP-2) based peptides and related uses” (Northwestern University, priority 2016, dated 2019).
Numbering of substitutions follows the chain as printed.

What was measured:
[1] = target: T1, recombinant GC (Cerezyme) (Homo sapiens, UniProt P04062, R534H); assay: recombinant GC activity assay; format: biochemical; settings: tenfold molar excess of peptide, acid pH, relative to buffer control
T1 construct: purchased Genzyme Therapeutics, Boston, USA
T1 sequence (P04062 40-536 R534H): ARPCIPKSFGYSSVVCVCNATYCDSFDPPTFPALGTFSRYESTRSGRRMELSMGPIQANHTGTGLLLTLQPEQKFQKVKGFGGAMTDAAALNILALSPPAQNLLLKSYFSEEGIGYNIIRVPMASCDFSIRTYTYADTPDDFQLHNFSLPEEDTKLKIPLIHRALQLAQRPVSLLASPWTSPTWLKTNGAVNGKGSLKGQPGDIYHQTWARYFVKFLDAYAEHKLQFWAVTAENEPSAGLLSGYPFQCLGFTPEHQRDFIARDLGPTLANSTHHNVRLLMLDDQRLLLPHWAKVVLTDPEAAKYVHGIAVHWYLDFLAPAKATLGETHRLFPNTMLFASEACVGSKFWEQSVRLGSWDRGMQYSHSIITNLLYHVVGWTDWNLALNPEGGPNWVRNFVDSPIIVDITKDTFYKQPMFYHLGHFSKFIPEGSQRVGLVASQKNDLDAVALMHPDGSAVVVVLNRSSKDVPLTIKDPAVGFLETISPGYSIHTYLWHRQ
Experimental: Expression plasmids of LIMP-2 and human GC constructs were generated as described previously (1). For Western blotting nitrocellulose or PVDF membranes were used. EndoH/PNGaseF digests were performed according to manufacturer's instructions (New England Biolabs, Ipswich, USA). For co-immunoprecipitation experiments magnetic agarose G beads (Thermo Fisher Scientific, Waltham, USA) were utilized. Immunofluorescence studies were performed in cells as previously described (1, 3). Cellular co-localization of two proteins was determined by the Pearson's Index (35). Enzyme activity assays of cell lysates or recombinant protein were measured at acid pH using absorbent and fluorescent artificial substrates. For peptide studies, peptides were N-terminally tagged with biotin. If not stated otherwise, recombinant enzyme was incubated with a tenfold higher molarity of peptides. Conditions for pulldown experiments were kept at neutral pH. Protein modelling, molecular analyses, graphics and animations were performed with the UCSF Chimera package.
To determine the enzymatic activity of the recombinant enzymes, lyophilized enzymes were reconstituted in the NaPi buffer described above. The lyophilized samples of wild-type GC (Cerezyme®) and the custom-made recombinant N307S mutant enzyme contain 0.01% polysorbate 80 (Tween 80) (see prescription information for Cerezyme® at the website for Cerezyme®). As indicated in our experiments, the concentration of the detergent is sufficient to support active GC enzyme and to perform the in vitro GC activity assays without adding further detergents to the reaction mix. For enzyme activity assays of recombinant proteins, 0.1-0.2 nmol of GC (Cerezyme®; N370S) and LAMAN were used in the absence or presence of 10× the molar amount of LIMP-2-derived peptides (Table 1) or LIMP-2 ectodomain (1-2 nmol) (Table 3).
All activity assays were performed at acid pH.

[2] = target: T2, lysosomal GC of living H4 cells (Homo sapiens, UniProt P04062); assay: live-cell lysosomal GC activity assay in H4 cells; format: cell-based; settings: 10 μM TAT peptide, relative to buffer control
T2 construct: Lysosomal GC activity of living H4 cells measured in vivo after incubation with uptake-optimized TAT-peptides; endogenous in cells; host or cells: H4 human neuroglioma cells (for the 74 h course: stably overexpressing α-synuclein)
T2 sequence (P04062 40-536): T1 sequence (P04062 40-536 R534H) with H495R
Experimental: Lysosomal GC activity in living cells was assessed by applying a drug-response assay in the presence and absence of a lysosomal inhibitor (bafilomycin A1; Invivogen) dissolved in DMSO (24). TAT peptides (10 μM) were added to the cell medium for 1 h; then H4 cells (see Table 5) were incubated with 100 μg/mL cell-permeable artificial substrate 5-(pentafluorobenzoylamino) fluorescein di-β-D-glucopyranoside (PFB-FDGlu) (Life Technologies, Thermo Fisher Scientific) for another hour. Cells were washed with warm medium; then the medium was replaced with phenol red-free neurobasal medium (Life Technologies, Thermo Fisher Scientific). The fluorescence intensity was recorded every 30 min for β-4 h in a SpectraMax i3 plate reader (Molecular Devices) (PFB-FDGlu: excitation=485 nm, emission=530 nm). After the final reading, cells were fixed in 4% formaldehyde/PBS and were stained with CellTag 700 (LICOR Biosciences) according to the manufacturer's instructions to measure cell volume. The plate was scanned on an Odyssey infrared imager (LI-COR Biosciences). Fluorescence intensities were normalized to cell volume and graphed versus time. Whole-cell activity was obtained by calculating the area below the DMSO curve. Nonlysosomal activity corresponds to the area under the bafilomycin A1 curve. Lysosomal activity was obtained by subtracting both areas (FIG. 6H).

Substance	increase of recombinant GC enzyme activity [1]	increase of recombinant GC enzyme activity ([1]; listed as LIMP-2-derived helix 5 peptide)	elevation of GC activity within lysosomes of living cells [2]
Biotin-Ttds-LREIIEAMLKAYQQKLFVTHTVDE [helix 5 peptide]	five times	five-fold increase	–
Biotin-Ttds-KFERQLREIIEAMLKAYQQKLFVTHTVDEYGRKKRRQRRR [helix 5 TAT-peptide]	comparable effect	–	18%
